Laboratory results reported in ChEMBL document CHEMBL5291721, “A preclinical secondary pharmacology resource illuminates target-adverse drug reaction associations of marketed drugs” (Nat Commun, 2023).

Experiments:
[1] = target: T1, Prostaglandin G/H synthase 1 (Rattus norvegicus, UniProt Q63921); assay type: functional
T1 sequence (Q63921 whole entry): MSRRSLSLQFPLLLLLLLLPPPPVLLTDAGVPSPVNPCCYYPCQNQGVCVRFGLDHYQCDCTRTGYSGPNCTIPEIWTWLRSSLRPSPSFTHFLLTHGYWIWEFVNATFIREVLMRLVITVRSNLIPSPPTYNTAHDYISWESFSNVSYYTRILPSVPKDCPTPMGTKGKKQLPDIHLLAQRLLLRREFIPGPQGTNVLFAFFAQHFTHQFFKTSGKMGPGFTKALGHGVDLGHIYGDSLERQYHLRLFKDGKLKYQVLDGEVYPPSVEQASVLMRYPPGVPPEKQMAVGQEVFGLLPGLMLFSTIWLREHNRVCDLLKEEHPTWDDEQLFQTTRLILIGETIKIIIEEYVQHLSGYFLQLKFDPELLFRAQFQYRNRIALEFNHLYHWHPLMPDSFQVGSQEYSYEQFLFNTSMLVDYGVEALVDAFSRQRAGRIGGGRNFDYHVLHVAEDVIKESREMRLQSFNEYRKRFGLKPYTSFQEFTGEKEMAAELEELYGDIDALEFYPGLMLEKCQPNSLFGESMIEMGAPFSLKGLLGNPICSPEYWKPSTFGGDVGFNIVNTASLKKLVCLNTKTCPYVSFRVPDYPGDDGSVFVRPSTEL

[2] = target: T2, Muscarinic acetylcholine receptor M4 (Homo sapiens, UniProt P08173)
T2 sequence (P08173 whole entry): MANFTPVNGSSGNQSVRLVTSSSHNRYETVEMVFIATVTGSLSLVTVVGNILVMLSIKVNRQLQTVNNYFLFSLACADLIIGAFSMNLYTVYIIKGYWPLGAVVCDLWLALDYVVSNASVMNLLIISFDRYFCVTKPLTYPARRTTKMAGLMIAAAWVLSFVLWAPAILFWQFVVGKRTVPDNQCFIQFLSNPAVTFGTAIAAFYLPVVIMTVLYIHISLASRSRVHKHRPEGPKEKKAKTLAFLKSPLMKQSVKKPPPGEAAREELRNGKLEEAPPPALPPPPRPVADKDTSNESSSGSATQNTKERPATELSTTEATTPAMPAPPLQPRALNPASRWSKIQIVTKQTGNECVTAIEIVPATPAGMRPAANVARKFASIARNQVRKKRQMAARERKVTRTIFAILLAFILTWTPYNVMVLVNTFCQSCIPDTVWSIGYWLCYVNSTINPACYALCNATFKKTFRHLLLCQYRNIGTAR

[3] = target: T3, Nuclear receptor subfamily 1 group I member 3 (Homo sapiens, UniProt Q14994); assay type: functional
T3 sequence (Q14994 whole entry): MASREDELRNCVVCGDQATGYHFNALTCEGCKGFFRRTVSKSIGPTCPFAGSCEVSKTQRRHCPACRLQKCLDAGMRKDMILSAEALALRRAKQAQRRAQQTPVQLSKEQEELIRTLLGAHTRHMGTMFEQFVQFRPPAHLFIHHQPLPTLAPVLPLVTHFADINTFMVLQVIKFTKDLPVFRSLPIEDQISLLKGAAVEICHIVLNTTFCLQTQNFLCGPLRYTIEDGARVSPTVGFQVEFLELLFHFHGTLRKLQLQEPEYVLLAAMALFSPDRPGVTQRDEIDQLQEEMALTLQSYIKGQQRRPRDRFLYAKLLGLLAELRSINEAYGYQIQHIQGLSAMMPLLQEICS

D(1B) dopamine receptor = D(1B) dopamine receptor (Homo sapiens, UniProt P21918)
D(1B) dopamine receptor, sequence (P21918 whole entry): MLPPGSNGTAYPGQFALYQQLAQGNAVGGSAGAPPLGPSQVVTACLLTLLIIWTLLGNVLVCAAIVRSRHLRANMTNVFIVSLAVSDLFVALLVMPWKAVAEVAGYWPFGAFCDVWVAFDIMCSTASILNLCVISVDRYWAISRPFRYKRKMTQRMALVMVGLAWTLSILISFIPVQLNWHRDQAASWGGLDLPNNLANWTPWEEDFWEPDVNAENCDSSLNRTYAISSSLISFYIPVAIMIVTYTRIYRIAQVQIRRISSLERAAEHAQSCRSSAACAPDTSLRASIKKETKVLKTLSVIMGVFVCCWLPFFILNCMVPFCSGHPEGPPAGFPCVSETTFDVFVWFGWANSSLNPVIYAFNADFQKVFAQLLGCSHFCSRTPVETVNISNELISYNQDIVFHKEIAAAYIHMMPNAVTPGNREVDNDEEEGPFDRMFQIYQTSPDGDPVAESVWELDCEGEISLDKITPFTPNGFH

Androgen receptor = target: T4, Androgen receptor (Rattus norvegicus, UniProt P15207)
T4 sequence (P15207 whole entry): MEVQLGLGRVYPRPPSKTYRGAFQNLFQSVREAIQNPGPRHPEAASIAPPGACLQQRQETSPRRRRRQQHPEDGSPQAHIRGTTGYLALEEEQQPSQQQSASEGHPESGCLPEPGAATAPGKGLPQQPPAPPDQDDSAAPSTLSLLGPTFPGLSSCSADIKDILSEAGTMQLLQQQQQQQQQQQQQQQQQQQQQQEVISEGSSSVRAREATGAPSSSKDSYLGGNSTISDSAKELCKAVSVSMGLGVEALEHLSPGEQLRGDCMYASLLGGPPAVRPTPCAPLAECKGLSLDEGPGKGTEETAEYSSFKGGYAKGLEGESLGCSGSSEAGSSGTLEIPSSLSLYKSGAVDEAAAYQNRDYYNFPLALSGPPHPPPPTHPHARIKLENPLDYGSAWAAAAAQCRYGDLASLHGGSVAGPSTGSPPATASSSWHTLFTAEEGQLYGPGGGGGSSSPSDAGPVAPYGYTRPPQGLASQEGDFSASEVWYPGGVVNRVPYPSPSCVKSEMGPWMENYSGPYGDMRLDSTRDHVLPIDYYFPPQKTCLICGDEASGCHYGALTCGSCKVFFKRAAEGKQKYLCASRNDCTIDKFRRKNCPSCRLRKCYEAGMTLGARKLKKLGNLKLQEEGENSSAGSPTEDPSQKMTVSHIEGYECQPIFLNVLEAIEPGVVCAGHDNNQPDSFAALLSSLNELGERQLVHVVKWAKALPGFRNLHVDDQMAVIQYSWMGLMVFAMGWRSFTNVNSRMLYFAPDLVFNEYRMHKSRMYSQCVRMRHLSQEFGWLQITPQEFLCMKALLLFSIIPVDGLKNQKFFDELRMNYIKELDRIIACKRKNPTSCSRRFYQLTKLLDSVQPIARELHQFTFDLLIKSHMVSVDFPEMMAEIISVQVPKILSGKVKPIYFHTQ

Acetylcholinesterase = Acetylcholinesterase (Homo sapiens, UniProt P22303); assay type: functional
Acetylcholinesterase, sequence (P22303 whole entry): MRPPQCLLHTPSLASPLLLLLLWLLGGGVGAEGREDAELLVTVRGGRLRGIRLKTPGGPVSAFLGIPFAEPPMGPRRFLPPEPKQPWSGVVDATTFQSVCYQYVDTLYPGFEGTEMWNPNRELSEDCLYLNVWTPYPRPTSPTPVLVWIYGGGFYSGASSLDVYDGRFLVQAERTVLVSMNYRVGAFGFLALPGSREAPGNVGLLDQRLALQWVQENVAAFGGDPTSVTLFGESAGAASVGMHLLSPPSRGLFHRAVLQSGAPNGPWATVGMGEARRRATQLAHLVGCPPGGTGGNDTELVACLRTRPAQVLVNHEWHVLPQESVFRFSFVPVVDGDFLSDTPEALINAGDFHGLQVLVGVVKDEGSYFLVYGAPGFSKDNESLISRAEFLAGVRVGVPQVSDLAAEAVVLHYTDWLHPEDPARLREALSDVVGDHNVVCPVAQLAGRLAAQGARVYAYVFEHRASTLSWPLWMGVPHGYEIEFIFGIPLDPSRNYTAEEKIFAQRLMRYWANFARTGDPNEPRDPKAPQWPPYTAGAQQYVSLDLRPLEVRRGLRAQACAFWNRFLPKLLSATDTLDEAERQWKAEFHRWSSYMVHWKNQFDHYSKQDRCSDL

[4] = target: Epidermal growth factor receptor (Homo sapiens, UniProt P00533); assay type: functional
Epidermal growth factor receptor, sequence (P00533 whole entry): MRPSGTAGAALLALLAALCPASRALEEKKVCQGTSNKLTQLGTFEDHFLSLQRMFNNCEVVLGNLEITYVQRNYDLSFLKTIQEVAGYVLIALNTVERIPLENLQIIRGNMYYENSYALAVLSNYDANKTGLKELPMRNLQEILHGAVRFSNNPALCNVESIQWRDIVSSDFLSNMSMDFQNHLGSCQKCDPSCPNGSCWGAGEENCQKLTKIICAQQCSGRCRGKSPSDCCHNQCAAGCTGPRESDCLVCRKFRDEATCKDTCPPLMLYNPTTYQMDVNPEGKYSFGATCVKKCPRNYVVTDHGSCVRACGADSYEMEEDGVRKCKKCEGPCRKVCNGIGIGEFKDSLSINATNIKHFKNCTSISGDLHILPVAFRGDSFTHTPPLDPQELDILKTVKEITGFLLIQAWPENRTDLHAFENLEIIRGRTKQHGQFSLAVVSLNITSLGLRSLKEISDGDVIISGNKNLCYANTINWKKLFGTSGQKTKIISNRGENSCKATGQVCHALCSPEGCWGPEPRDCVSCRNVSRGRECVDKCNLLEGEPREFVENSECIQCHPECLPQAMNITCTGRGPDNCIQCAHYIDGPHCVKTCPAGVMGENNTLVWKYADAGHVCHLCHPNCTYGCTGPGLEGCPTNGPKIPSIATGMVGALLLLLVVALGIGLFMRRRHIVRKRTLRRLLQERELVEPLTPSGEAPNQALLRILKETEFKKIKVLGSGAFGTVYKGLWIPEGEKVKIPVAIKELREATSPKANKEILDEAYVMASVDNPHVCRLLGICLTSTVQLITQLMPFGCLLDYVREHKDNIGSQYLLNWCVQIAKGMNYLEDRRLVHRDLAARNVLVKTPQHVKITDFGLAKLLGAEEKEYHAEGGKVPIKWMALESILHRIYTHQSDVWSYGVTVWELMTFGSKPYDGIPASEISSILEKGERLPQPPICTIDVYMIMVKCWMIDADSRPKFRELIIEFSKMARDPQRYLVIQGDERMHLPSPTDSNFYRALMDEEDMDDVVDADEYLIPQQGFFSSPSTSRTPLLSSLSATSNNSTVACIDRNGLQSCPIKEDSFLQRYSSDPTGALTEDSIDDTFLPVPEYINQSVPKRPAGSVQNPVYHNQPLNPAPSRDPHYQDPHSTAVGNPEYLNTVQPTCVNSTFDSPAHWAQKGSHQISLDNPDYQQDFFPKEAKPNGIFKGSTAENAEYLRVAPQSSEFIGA

Thromboxane A2 receptor = target: T5, Thromboxane A2 receptor (Homo sapiens, UniProt P21731); assay type: functional
T5 sequence (P21731 whole entry): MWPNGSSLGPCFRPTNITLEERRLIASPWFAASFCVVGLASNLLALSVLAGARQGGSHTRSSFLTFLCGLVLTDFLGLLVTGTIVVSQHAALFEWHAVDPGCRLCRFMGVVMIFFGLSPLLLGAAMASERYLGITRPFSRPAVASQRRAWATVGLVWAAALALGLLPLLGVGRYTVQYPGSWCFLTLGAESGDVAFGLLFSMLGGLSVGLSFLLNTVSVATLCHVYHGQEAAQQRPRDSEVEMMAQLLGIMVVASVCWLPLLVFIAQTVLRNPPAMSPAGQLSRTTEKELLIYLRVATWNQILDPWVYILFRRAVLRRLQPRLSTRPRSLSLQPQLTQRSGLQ
Further: assay procedure not described here.

`CC(C)N(CCC(C(N)=O)(c1ccccc1)c1ccccn1)C(C)C` (configuration not stated) [DISOPYRAMIDE] showed an AC50 [1] of 29.7 µM.

With `CCN(CC)CCNC(=O)c1c(C)[nH]c(/C=C2\C(=O)Nc3ccc(F)cc32)c1C` [SUNITINIB] the AC50 [2] was > 10 µM and the AC50 [3] was > 30 µM.

With `CO[C@H]1/C=C/O[C@@]2(C)Oc3c(C)c(O)c4c(O)c(c(/C=N/N5CCN(C)CC5)c(O)c4c3C2=O)NC(=O)/C(C)=C\C=C\[C@H](C)[C@H](O)[C@@H](C)[C@@H](O)[C@@H](C)[C@H](OC(C)=O)[C@@H]1C` [RIFAMPIN] the AC50 [3] was > 30 µM.

In the case of `Cc1onc(-c2ccccc2)c1-c1ccc(S(N)(=O)=O)cc1` [VALDECOXIB], the AC50 [2] is reported as > 10 µM, the AC50 (D(1B) dopamine receptor) is reported as > 10 µM and the AC50 [1] is reported as > 30 µM.

In the case of `COc1ccccc1OCCNCC(O)COc1cccc2[nH]c3ccccc3c12` (configuration not stated) [CARVEDILOL], the AC50 (Androgen receptor) is reported as > 30 µM and the AC50 [1] is reported as > 30 µM.

With `C=CC[C@@H]1/C=C(\C)C[C@H](C)C[C@H](OC)[C@H]2O[C@@](O)(C(=O)C(=O)N3CCCC[C@H]3C(=O)O[C@H](/C(C)=C/[C@@H]3CC[C@@H](O)[C@H](OC)C3)[C@H](C)[C@@H](O)CC1=O)[C@H](C)C[C@@H]2OC` [TACROLIMUS ANHYDROUS] the AC50 (Acetylcholinesterase) was > 30 µM, the AC50 (Androgen receptor) was > 30 µM and the AC50 [4] was > 30 µM. The AC50 (Thromboxane A2 receptor) was > 30 µM.

In the case of `C[C@H](CCC(=O)O)[C@H]1CC[C@H]2[C@@H]3[C@@H](O)C[C@@H]4C[C@H](O)CC[C@]4(C)[C@H]3CC[C@]12C` [URSODIOL], the AC50 (Acetylcholinesterase) is reported as > 30 µM and the AC50 [4] is reported as > 30 µM.

In the case of `CCCN(CCC)C(=O)Cc1c(-c2ccc(Cl)cc2)nc2ccc(Cl)cn12` [ALPIDEM], the AC50 [2] is reported as > 10 µM.

`CCCC(CCC)C(=O)O` [VALPROIC ACID] was tested, and the AC50 [2] was > 10 µM.

`N[C@@H](CC(=O)N1CCn2c(nnc2C(F)(F)F)C1)Cc1cc(F)c(F)cc1F` [SITAGLIPTIN] was tested, and the AC50 [2] was > 10 µM and the AC50 (D(1B) dopamine receptor) was > 10 µM.

With `CC(C(=O)O)c1ccc2c(c1)[nH]c1ccc(Cl)cc12` (configuration not stated) [CARPROFEN] the AC50 [3] was > 30 µM.

`CN(C)CCc1c[nH]c2ccc(Cn3cncn3)cc12` [RIZATRIPTAN] was tested, and the AC50 (Androgen receptor) was > 30 µM.

In the case of `COc1cc2nccc(Oc3ccc(NC(=O)C4(C(=O)Nc5ccc(F)cc5)CC4)cc3)c2cc1OC` [CABOZANTINIB], the AC50 (Acetylcholinesterase) is reported as > 30 µM and the AC50 (Thromboxane A2 receptor) is reported as > 30 µM.

For `COc1ccc(CC2c3cc(OC)c(OC)cc3CC[N+]2(C)CCC(=O)OCCCCCOC(=O)CC[N+]2(C)CCc3cc(OC)c(OC)cc3C2Cc2ccc(OC)c(OC)c2)cc1OC` (configuration not stated), the AC50 [1] was 18.9 µM.

For `CCN1CCN(Cc2ccc(Nc3ncc(F)c(-c4cc(F)c5nc(C)n(C(C)C)c5c4)n3)nc2)CC1` [ABEMACICLIB], the AC50 (Acetylcholinesterase) was > 30 µM and the AC50 [4] was 9.5 µM.

`COc1ccccc1Oc1c(NS(=O)(=O)c2ccc(C(C)(C)C)cc2)nc(-c2ncccn2)nc1OCCO` [BOSENTAN] was tested, and the AC50 [3] was 2.1 µM.
